Read-outs that look alike come from different tables or passages of the source.
How the values were obtained:
SW-620 = type: cell-based
HT29 = type: cell-based
OVCAR-5 = type: cell-based
UO-31 = type: cell-based
[1] = tested on: Non-small cell lung cancer cell lines; assay: NCI-60 five-dose, subpanel
Description: (§1) Furthermore, the average sensitivity of all cell lines to the compound is termed as the full panel mean graph midpoints (MG-MID). The complete panel mean graph midpoints refers to the average sensitivity of all cell lines to the chemical (MG-MID). A measure of a compound’s selectivity for a given cell line is the ratio created by dividing the full panel mean graph midpoints (MG-MID) concentration by the individual subpanel MG-MID concentrations (obtained as the average sensitivity of all the cell lines in a given subpanel to the test compound).
(§2) Assessment of selectivity of a compound depends on the ratio obtained by dividing the full panel MID ^a by their individual subpanel MID ^b (µM) where MID^a is the average sensitivity of all cell lines towards the test agent (µM).

MDA-MB-231/ATCC = type: cell-based
MDA-MB-435 = type: cell-based
UACC-62 = type: cell-based
SK-MEL-28 = type: cell-based
HCT-15 = type: cell-based
EKVX = type: cell-based
Breast cancer cell lines = assay: NCI-60 five-dose, subpanel
Description: (§3) A measure of a compound’s selectivity for a given cell line is the ratio created by dividing the full panel mean graph midpoints (MG-MID) concentration by the individual subpanel MG-MID concentrations (obtained as the average sensitivity of all the cell lines in a given subpanel to the test compound).
as §2

IGROV1 = type: cell-based
MCF7 = type: cell-based
SK-MEL-2 = type: cell-based
SF-295 = type: cell-based
U251 = type: cell-based
SR = type: cell-based
NCI-H226 = type: cell-based
leukaemia cell lines = assay: NCI-60 five-dose, subpanel
Description: as §1, §2

MDA-MB-468 = type: cell-based
CAKI-1 = type: cell-based
HOP-92 = type: cell-based
OVCAR-4 = type: cell-based
DU-145 = type: cell-based
786-0 = type: cell-based
A549/ATCC = type: cell-based
SK-OV-3 = type: cell-based
[2] = tested on: Ovarian cancer cell lines; assay: NCI-60 five-dose, subpanel
Description: as §3, §2

BT-549 = type: cell-based
[3] = Homo sapiens, one dose 10^-5 M, 48 h
[4] = Homo sapiens, five-dose, read-out: LC50 (the source's name)
[5] = Homo sapiens, read-out: GI50 Subpanel MID^b
[6] = Homo sapiens, one dose 10^-5 M, 48 h, read-out: % growth

N#Cc1c(N)nc(S)nc1-c1ccc(Cl)cc1Cl [Compound 1c, 4-Amino-6–(2,4-dichlorophenyl)-2-mercaptopyrimidine-5-carbonitrile]
GI50 (SW-620; Homo sapiens, five-dose): 12 µM
LC50 (SW-620; Homo sapiens, five-dose): 78.6 µM
% growth at 10 µM (SW-620; [3]): 45.7%
TGI (SW-620; five-dose): 30.70 µM
GI50 (HT29; Homo sapiens, HT-29, five-dose): 13.8 µM
CC50 (HT29; Homo sapiens, HT-29, five-dose, read-out: LC50 (the source's name)): 68.9 µM
% growth at 10 µM (HT29; Homo sapiens, HT-29, one dose 10^-5 M, 48 h): 24.7%
TGI (HT29; five-dose): 30.80 µM
GI50 (OVCAR-5; Homo sapiens, five-dose): 16.4 µM
CC50 (OVCAR-5; [4]): 63.2 µM
percent cell growth at 10 µM (OVCAR-5; [3]): 93.5%
TGI (OVCAR-5; five-dose): 32.20 µM
% cell growth at 10 µM (UO-31; Homo sapiens, UO-31, 48 h, one dose 10^-5 M, 48 h): 63.5%
GI50 (UO-31; Homo sapiens, five-dose): 14.7 µM
CC50 (UO-31; [4]): 53.6 µM
TGI (UO-31; five-dose): 28.10 µM
GI50 [1, 5]: 18.1 µM
Selectivity ratio (full panel MID^a / subpanel MID^b, GI50 level) ([1]; non-small cell lung cancer): 0.7
GI50 (MDA-MB-231/ATCC; Homo sapiens, five-dose): 13.1 µM
LC50 (MDA-MB-231/ATCC; Homo sapiens, five-dose): 58.1 µM
% growth at 10 µM (MDA-MB-231/ATCC; [3]): 51.9%
TGI (MDA-MB-231/ATCC; five-dose): 27.60 µM
GI50 (MDA-MB-435; Homo sapiens, five-dose): 10.5 µM
CC50 (MDA-MB-435; [4]): > 100 µM
activity at 10 µM (MDA-MB-435; [6]): 25.3%
TGI (MDA-MB-435; five-dose): 38.00 µM
GI50 (UACC-62; Homo sapiens, five-dose): 13.8 µM
CC50 (UACC-62; [4]): 57.6 µM
% growth at 10 µM (UACC-62; [3]): 62.7%
TGI (UACC-62; five-dose): 28.20 µM
GI50 (SK-MEL-28; Homo sapiens, five-dose): 15.2 µM
CC50 (SK-MEL-28; [4]): 60.7 µM
% cell growth at 10 µM (SK-MEL-28; [3]): 57.7%
TGI (SK-MEL-28; five-dose): 30.40 µM
GI50 (HCT-15; Homo sapiens, five-dose): 0.08 µM
CC50 (HCT-15; [4]): 97.9 µM
activity at 10 µM (HCT-15; [6]): 10.9%
TGI (HCT-15; five-dose): 17.90 µM
GI50 (EKVX; Homo sapiens, five-dose): 14.3 µM
LC50 (EKVX; Homo sapiens, five-dose): 62.6 µM
% cell growth at 10 µM (EKVX; [3]): 98.6%
TGI (EKVX; five-dose): 29.90 µM
GI50 (Breast cancer cell lines; [5]): 11.4 µM
Selectivity ratio (full panel MID^a / subpanel MID^b, GI50 level) (Breast cancer cell lines; breast cancer): 1.13
GI50 (IGROV1; Homo sapiens, IGROV-1, five-dose): 19.2 µM
CC50 (IGROV1; Homo sapiens, IGROV-1, five-dose, read-out: LC50 (the source's name)): 87.6 µM
activity at 10 µM (IGROV1; Homo sapiens, IGROV-1, one dose 10^-5 M, 48 h, read-out: % growth): 65.7%
TGI (IGROV1; five-dose): 41.00 µM
GI50 (MCF7; Homo sapiens, five-dose): 0.12 µM
CC50 (MCF7; [4]): > 100 µM
activity at 10 µM (MCF7; [6]): 31.6%
TGI (MCF7; five-dose): 31.10 µM
GI50 (SK-MEL-2; Homo sapiens, five-dose): 17.5 µM
LC50 (SK-MEL-2; Homo sapiens, five-dose): 66.8 µM
% growth at 10 µM (SK-MEL-2; [3]): 98.6%
TGI (SK-MEL-2; five-dose): 34.20 µM
GI50 (SF-295; Homo sapiens, five-dose): 10.4 µM
CC50 (SF-295; [4]): 49 µM
% cell growth at 10 µM (SF-295; [3]): 78.1%
TGI (SF-295; five-dose): 22.60 µM
GI50 (U251; Homo sapiens, U-251, five-dose): 13.4 µM
CC50 (U251; Homo sapiens, U-251, five-dose, read-out: LC50 (the source's name)): 68.9 µM
% growth at 10 µM (U251; Homo sapiens, U-251, one dose 10^-5 M, 48 h): 38.8%
TGI (U251; five-dose): 30.40 µM
GI50 (SR; Homo sapiens, five-dose): 0.14 µM
CC50 (SR; [4]): > 100 µM
percent cell growth at 10 µM (SR; [3]): 2.54%
TGI (SR; five-dose): 23.70 µM
GI50 (NCI-H226; Homo sapiens, five-dose): 16.5 µM
LC50 (concentration killing 50% of tumour cells) (NCI-H226; Homo sapiens, five-dose): 82 µM
% growth at 10 µM (NCI-H226; [3]): 64.4%
TGI (NCI-H226; five-dose): 36.80 µM
GI50 (leukaemia cell lines; [5]): 0.33 µM
GI50 (leukaemia cell lines; Homo sapiens, read-out: GI50 range, leukaemia cell lines): 0.08 to 0.7 µM
CC50 (leukaemia cell lines; Homo sapiens, read-out: LC50, leukaemia): > 100 µM
Selectivity ratio (full panel MID^a / subpanel MID^b, GI50 level) (leukaemia cell lines; leukaemia): 39
GI50 (MDA-MB-468; Homo sapiens, five-dose): 11.4 µM
CC50 (MDA-MB-468; [4]): 55.7 µM
percent cell growth at 10 µM (MDA-MB-468; [3]): 35%
TGI (MDA-MB-468; five-dose): 25.20 µM
% growth at 10 µM (CAKI-1; Homo sapiens, CAKI-1, 48 h, one dose 10^-5 M, 48 h): 72.3%
GI50 (CAKI-1; Homo sapiens, five-dose): 18.4 µM
CC50 (CAKI-1; [4]): > 100 µM
TGI (CAKI-1; five-dose): 45.70 µM
GI50 (HOP-92; Homo sapiens, five-dose): 19.8 µM
LC50 (50% lethal concentration) (HOP-92; Homo sapiens, five-dose): > 100 µM
% growth at 10 µM (HOP-92; [3]): 105%
TGI (HOP-92; five-dose): 56.40 µM
GI50 (OVCAR-4; Homo sapiens, five-dose): 32 µM
CC50 (OVCAR-4; [4]): > 100 µM
% growth at 10 µM (OVCAR-4; [3]): 81.2%
TGI (OVCAR-4; five-dose): >100 µM
GI50 (DU-145; Homo sapiens, five-dose): 14.9 µM
LC50 (DU-145; Homo sapiens, five-dose): 57.4 µM
% growth at 10 µM (DU-145; [3]): 51.3%
TGI (DU-145; five-dose): 29.20 µM
GI50 (786-0; Homo sapiens, five-dose): 17.5 µM
CC50 (786-0; [4]): 99.1 µM
% growth at 10 µM (786-0; [3]): 67%
TGI (786-0; five-dose): 41.60 µM
GI50 (A549/ATCC; Homo sapiens, five-dose): 25.8 µM
LC50 (A549/ATCC; Homo sapiens, five-dose): > 100 µM
% growth at 10 µM (A549/ATCC; [3]): 90.1%
TGI (A549/ATCC; five-dose): 77.40 µM
GI50 (SK-OV-3; Homo sapiens, five-dose): 26.3 µM
LC50 (SK-OV-3; Homo sapiens, five-dose): > 100 µM
% growth at 10 µM (SK-OV-3; [3]): 126%
TGI (SK-OV-3; five-dose): 62.60 µM
GI50 [2, 5]: 19.2 µM
Selectivity ratio (full panel MID^a / subpanel MID^b, GI50 level) ([2]; ovarian cancer): 0.7
GI50 (BT-549; Homo sapiens, five-dose): 14.9 µM
CC50 (BT-549; [4]): 62.7 µM
% cell growth at 10 µM (BT-549; [3]): 42.1%
TGI (BT-549; five-dose): 30.50 µM

— publication PMC10866072, “Design, synthesis, molecular modelling and biological evaluation of novel 6-amino-5-cyano-2-thiopyrimidine derivatives as potent anticancer agents against leukemia and apoptotic inducers” (Journal of Enzyme Inhibition and Medicinal Chemistry, 2024)
